# Results: US20260098027A1, “PHARMACEUTICALLY ACCEPTABLE SALT AND CRYSTAL FORM OF TETRAHYDRONAPHTHALENE DERIVATIVE, AND PREPARATION METHOD” (JIANGSU HENGRUI PHARMACEUTICALS CO., LTD., priority 2022, published 2026)
# Counter-ions that a name gives are not always drawn.
# Assays:
# MCF7 cells = assay: Inhibitory effect on MCF7 cell proliferation (CellTiter-Glo); format: cell-based; settings: Homo sapiens, 144 h, 6 days incubation, luminescence cell viability readout
# Experimental: MCF7 cells (TCHu74, National Collection of Authenticated Cell Cultures) were cultured in an MEM (GE Healthcare, SH30024.01) complete culture medium containing 10% fetal bovine serum. On day 1 of the experiment, MCF7 cells were seeded into a 96-well plate at a density of 3,000 cells/well using an MEM culture medium containing 2% fetal bovine serum, with each well containing 135 μL of cell suspension. The plate was incubated overnight in a 37° C., 5% CO2 cell incubator. The next day, the test compound, at different concentrations in the culture medium, was added at 15 μL/well. The final concentrations of the compound were 9 concentration points obtained by 4-fold serial dilution from 1000 nM. A blank control containing 0.5% DMSO was set up. The plate was incubated in a 37° C., 5% CO2 cell incubator for 6 days. On day 8, the 96-well cell culture plate was taken out, and CellTiter-Glo® Luminescent Cell Viability Assay (Promega, G7573) was added at 75 µL/well. After the plate was left at room temperature for 10 min, luminescence signal values were measured using a multilabel microplate reader (PerkinElmer, VICTOR 3).
# [1] = system: MCF-7 (Y537S) human breast cancer cells xenograft tumors; assay: Efficacy against MCF-7 (Y537S) xenograft tumors in BEIGE SCID mice; format: in vivo; settings: for Mean tumor volume D0: D0 (day of grouping, before dosing)
# Experimental: To evaluate the inhibitory effect of compound I on the growth of xenograft tumors of MCF-7 (Y537S) human breast cancer cells in BEIGE SCID mice.
# Compound I. A 2% Tween 80+98% PEG-400 solution was used.
# Test animals: female BEIGE SCID mice, purchased from Beijing Vital River Laboratory Animal Technology Co., Ltd. (certificate No. SCXK (Beijing) 2016-0006), weighing about 19 g on purchase.
# Housing conditions: 5 animals/cage, a 12/12-hour light/dark cycle, a constant temperature of 23±1° C. with humidity at 50 to 60%, ad libitum access to food and water.
# After acclimatization, BEIGE SCID mice were grouped as follows:
# MCF-7 (Y537S) cells in the logarithmic growth phase were subcutaneously inoculated into the right flank of female BEIGE SCID mice at 1.0×10^7/mouse/200 μL (containing 100 μL of matrigel). After 18 days, when the tumor volume of tumor-bearing mice reached about 170 mm^3, the mice were randomly divided into 4 groups of 8 according to tumor volume and body weight: a vehicle control group, a compound I 5 mpk group, a compound I 15 mpk group, and a compound I 45 mpk group. The day of grouping was set as Do, and intragastric administration was started and performed once a day for 28 days. The 28th day post-dose was set as D28 (Table 1). The tumor volume of tumor-bearing mice was measured with a vernier caliper twice a week.
# All data were plotted and statistically analyzed using Excel and GraphPad Prism 8 software.
# The calculation formula for tumor volume (V) was: V=½×a×b2, where a and b represent length and width, respectively.
# Relative tumor proliferation rate T/C (%)=(T−T0)/(C−C0)×100(%), where T and C represent the tumor volumes of the treatment groups and the control group at the end of the experiment; T0 and C0 represent the tumor volumes at the beginning of the experiment.
# Tumor growth inhibition rate TGI (%)=1−T/C (%). If TGI (%) exceeds 100%, its specific value will not be shown; instead, it will be represented as >100%. Tumor regression (%)=[(T0−T)/T0]×100(%).
# [2] = DVS (dynamic vapor sorption) hygroscopicity test; format: physicochemical
# Experimental: DVS refers to dynamic vapor sorption: Surface Measurement Systems instrinsic was adopted; the humidity started at 50%, the humidity range of the investigation was 0%-95%, and the humidity was increased in increments of 10%; the criterion was that each gradient mass change dM/dT is ≤0.002%, TMAX 360 min, two cycles.
# [3] = Long-term/accelerated stability; format: physicochemical
# Experimental: Hydrochloride crystal form I was left to stand under 25° C./60% RH and 40° C./75% RH conditions to test its stability.
# [4] = Influencing factor stability (light, high temperature, high humidity); format: physicochemical
# Experimental: Samples of hydrochloride crystal form I were spread out in open vessels and subjected to 1-month stability tests under light exposure (4500 Lux), high temperature (40° C. and 60° C.), and high humidity (RH 75% and RH 92.5%) conditions.
smiles,measurement,setting,value
"CC(C)C[C@H]1CCc2cc(O)ccc2[C@H]1c1ccc(N2CCC(CN3CCN(c4ccc5c(c4)CN([C@H]4CCC(=O)NC4=O)C5=O)CC3)CC2)cc1 [Compound I, (S)-3-(5-(4-((1-(4-((1R,2R)-6-hydroxy-2-isobutyl-1,2,3,4-tetrahydronaphthalen-1-yl)phenyl)piperidin-4-yl)methyl)piperazin-1-yl)-1-oxoisoindolin-2-yl)piperidine-2,6-dione]",IC50,MCF7 cells,590 pM
same,Number of remaining animals/group,[1]; 5 mpk i.g. qd/28 d,8/8
same,Mean tumor volume D0,[1]; 5 mpk i.g. qd/28 d,170.2 mm^3
same,Mean tumor volume D28,[1]; 5 mpk i.g. qd/28 d,305.0 mm^3
same,TGI (%) D28,[1]; 5 mpk i.g. qd/28 d,72%
same,Number of remaining animals/group,[1]; 15 mpk i.g. qd/28 d,8/8
same,Mean tumor volume D0,[1]; 15 mpk i.g. qd/28 d,168.2 mm^3
same,Mean tumor volume D28,[1]; 15 mpk i.g. qd/28 d,219.7 mm^3
same,TGI (%) D28,[1]; 15 mpk i.g. qd/28 d,89%
same,Number of remaining animals/group,[1]; 45 mpk i.g. qd/28 d,8/8
same,Mean tumor volume D0,[1]; 45 mpk i.g. qd/28 d,168.6 mm^3
same,Mean tumor volume D28,[1]; 45 mpk i.g. qd/28 d,192.0 mm^3
same,TGI (%) D28,[1]; 45 mpk i.g. qd/28 d,95%
"CC(C)C[C@H]1CCc2cc(O)ccc2[C@H]1c1ccc(N2CCC(CN3CCN(c4ccc5c(c4)CN([C@H]4CCC(=O)NC4=O)C5=O)CC3)CC2)cc1 [hydrochloride crystal form I, (S)-3-(5-(4-((1-(4-((1R,2R)-6-hydroxy-2-isobutyl-1,2,3,4-tetrahydronaphthalen-1-yl)phenyl)piperidin-4-yl)methyl)piperazin-1-yl)-1-oxoisoindolin-2-yl)piperidine-2,6-dione]",hygroscopic weight gain,"[2]; accelerated experimental conditions, 70% RH",about 7.3%
same,hygroscopic weight gain,"[2]; extreme conditions, 90% RH",about 8.9%
same,hygroscopic weight gain,"[2]; normal storage conditions, 25° C. and 60% RH",about 6.3%
same,crystal form after the DVS tests,[2]; sample re-identified after DVS,its crystal form did not change
same,Purity %,"[3]; 25° C./60% RH, 7 days",99.0%
same,Purity %,"[3]; 25° C./60% RH, 14 days",99.0%
same,Purity %,"[3]; 25° C./60% RH, 30 days",99.0%
same,Purity %,"[3]; 25° C./60% RH, 60 days",99.0%
same,Purity %,"[3]; 40° C./75% RH, 7 days",99.0%
same,Purity %,"[3]; 40° C./75% RH, 14 days",99.0%
same,Purity %,"[3]; 40° C./75% RH, 30 days",99.0%
same,Purity %,"[3]; 40° C./75% RH, 60 days",98.9%
same,Purity %,"[3]; Initial, 0 days",99.0%
same,physical and chemical stabilities (conclusion),[3]; standing under long-term accelerated conditions for 2 months,good physical and chemical stabilities
same,Purity %,"[4]; 40° C., 7 days, open vessel",98.6%
same,Purity %,"[4]; 40° C., 14 days, open vessel",98.4%
same,Purity %,"[4]; 40° C., 30 days, open vessel",97.9%
same,Purity %,"[4]; 60° C., 7 days, open vessel",98.2%
same,Purity %,"[4]; 60° C., 14 days, open vessel",97.6%
same,Purity %,"[4]; 60° C., 30 days, open vessel",96.8%
same,Purity %,"[4]; 75% RH, 7 days, open vessel",99.0%
same,Purity %,"[4]; 75% RH, 14 days, open vessel",98.9%
same,Purity %,"[4]; 75% RH, 30 days, open vessel",99.0%
same,Purity %,"[4]; 93% RH, 7 days, open vessel",99.0%
same,Purity %,"[4]; 93% RH, 14 days, open vessel",98.9%
same,Purity %,"[4]; 93% RH, 30 days, open vessel",98.7%
same,Purity %,"[4]; 4500 Lux, 7 days, open vessel",98.6%
same,Purity %,"[4]; 4500 Lux, 14 days, open vessel",98.1%
same,Purity %,"[4]; 4500 Lux, 30 days, open vessel",97.8%
same,Purity %,"[4]; Initial, 0 days",99.0%
same,physical and chemical stabilities (conclusion),[4]; standing 1 month under conditions other than the high temperature and light exposure conditions,good physical and chemical stabilities
